Measurements: patent US11208475B1, “Methods and compositions for treating inflammatory or autoimmune diseases or conditions using serotonin receptor activators” (Flagship Pioneering Innovations V, Inc., priority 2018, dated 2021)

Test system: macrophages
Assay: IL-8 secretion by macrophages incubated with serotonin receptor agonists (bead-based immunoassay)
Format: cell-based
Settings: human CD14+ monocyte-derived macrophages (M-CSF), supernatant
Method: CD14+ monocytes were isolated from human PBMCs using negative magnetic bead selection (Stemcell Technologies) on day 0. Cells were cultured with M-CSF to differentiate monocytes to macrophages. On day 6, cells were treated with LP44 (high affinity 5-HT7 agonist), BW 723C86 hydrochloride (5-HT2B agonist), MK 212 hydrochloride (5-HT2C agonist) (Sigma-Aldrich), at concentrations 1 μM and 10 μM overnight. Supernatant was collected and bead-based immunoassays (Biolegend) were performed to detect changes in cytokine secretion.
Across multiple human donors, secretion of the inflammatory cytokine, IL8, by macrophages was decreased after addition of each of the HTR2B, HTR2C, and HTR7 agonists, as show in Table 17 below.

CC(N)Cc1c[nH]c2ccc(OCc3cccs3)cc12.Cl (stereo not drawn) [BW723086]
Fold change of IL-8 (Normalized to Macs + LPS with no compound treatment) (compound 1 μM overnight): 0.693
Fold change of IL-8 (Normalized to Macs + LPS with no compound treatment) (compound 10 μM overnight): 0.527

CSc1ccccc1N1CCN(CCCCCC(=O)NC2CCCc3ccccc32)CC1 (stereo not drawn) [LP44]
Fold change of IL-8 (Normalized to Macs + LPS with no compound treatment) (compound 1 μM overnight): 0.340
Fold change of IL-8 (Normalized to Macs + LPS with no compound treatment) (compound 10 μM overnight): 0.427

Clc1cncc(N2CCNCC2)n1 [MK212]
Fold change of IL-8 (Normalized to Macs + LPS with no compound treatment) (compound 1 μM overnight): 0.502
Fold change of IL-8 (Normalized to Macs + LPS with no compound treatment) (compound 10 μM overnight): 0.484
